Test results: ChEMBL document CHEMBL5723584 (2023); call rule not given here

Tests used:
Aurora kinase A = Aurora kinase A (Homo sapiens, UniProt O14965); assay: Promega NanoBRET (AURKA)
[1] = molecular target: cAMP-dependent protein kinase catalytic subunit alpha (Homo sapiens, UniProt P17612); assay: Promega NanoBRET (PRKACA)
[2] = molecular target: 5'-AMP-activated protein kinase catalytic subunit alpha-2 (Homo sapiens) (UniProt P54646); assay: activity of AMPKalpha2(h) at 1.0 µM in the Eurofins Kinase panel; conditions: Compound concentration 1.0 uM
[3] = molecular target: Calcium/calmodulin-dependent protein kinase kinase 2 (Homo sapiens) (UniProt Q96RR4); assay: activity of CaMKK2(h) at 1.0 µM in the Eurofins Kinase panel; conditions: Compound concentration 1.0 uM
[4] = molecular target: CDC7/Cyclin B1 (Homo sapiens) (UniProt P14635+O00311); assay: activity of Cdc7/cyclinB1(h) at 1.0 µM in the Eurofins Kinase panel; format: protein-complex assay; conditions: Compound concentration 1.0 uM
[5] = molecular target: Cyclin-dependent kinase-like 4 (Homo sapiens) (UniProt Q5MAI5); assay: activity of CDKL4(h) at 1.0 µM in the Eurofins Kinase panel; conditions: Compound concentration 1.0 uM
[6] = molecular target: Transient receptor potential cation channel subfamily M member 7 (Homo sapiens) (UniProt Q96QT4); assay: activity of ChaK1(h) at 1.0 µM in the Eurofins Kinase panel; conditions: Compound concentration 1.0 uM
[7] = molecular target: Serine/threonine-protein kinase Chk2 (Homo sapiens) (UniProt O96017); assay: activity of CHK2(h) at 1.0 µM in the Eurofins Kinase panel; conditions: Compound concentration 1.0 uM
[8] = molecular target: RAF proto-oncogene serine/threonine-protein kinase (Homo sapiens) (UniProt P04049); assay: activity of c-RAF(h) at 1.0 µM in the Eurofins Kinase panel; conditions: Compound concentration 1.0 uM
[9] = molecular target: Serine/threonine-protein kinase DCLK2 (Homo sapiens) (UniProt Q8N568); assay: activity of DCAMKL2(h) at 1.0 µM in the Eurofins Kinase panel; conditions: Compound concentration 1.0 uM
[10] = molecular target: Dual specificity tyrosine-phosphorylation-regulated kinase 1B (Homo sapiens) (UniProt Q9Y463); assay: activity of DYRK1B(h) at 1.0 µM in the Eurofins Kinase panel; conditions: Compound concentration 1.0 uM
[11] = molecular target: Ephrin type-A receptor 3 (Homo sapiens) (UniProt P29320); assay: activity of EphA3(h) at 1.0 µM in the Eurofins Kinase panel; conditions: Compound concentration 1.0 uM
[12] = molecular target: Ephrin type-B receptor 1 (Homo sapiens) (UniProt P54762); assay: activity of EphB1(h) at 1.0 µM in the Eurofins Kinase panel; conditions: Compound concentration 1.0 uM
[13] = molecular target: Homeodomain-interacting protein kinase 1 (Homo sapiens) (UniProt Q86Z02); assay: activity of HIPK1(h) at 1.0 µM in the Eurofins Kinase panel; conditions: Compound concentration 1.0 uM
[14] = molecular target: Inhibitor of nuclear factor kappa-B kinase subunit beta (Homo sapiens) (UniProt O14920); assay: activity of IKKbeta(h) at 1.0 µM in the Eurofins Kinase panel; conditions: Compound concentration 1.0 uM
[15] = molecular target: Insulin receptor (Homo sapiens) (UniProt P06213); assay: activity of IR(h) at 1.0 µM in the Eurofins Kinase panel; conditions: Compound concentration 1.0 uM
[16] = molecular target: Serine/threonine-protein kinase/endoribonuclease IRE1 (Homo sapiens) (UniProt O75460); assay: activity of IRE1(h) at 1.0 µM in the Eurofins Kinase panel; conditions: Compound concentration 1.0 uM
[17] = molecular target: Tyrosine-protein kinase JAK2 (Homo sapiens) (UniProt O60674); assay: activity of JAK2(h) at 1.0 µM in the Eurofins Kinase panel; conditions: Compound concentration 1.0 uM
[18] = molecular target: Mitogen-activated protein kinase 9 (Homo sapiens) (UniProt P45984); assay: activity of JNK2alpha2(h) at 1.0 µM in the Eurofins Kinase panel; conditions: Compound concentration 1.0 uM
[19] = molecular target: Serine/threonine-protein kinase LATS1 (Homo sapiens) (UniProt O95835); assay: activity of LATS1(h) at 1.0 µM in the Eurofins Kinase panel; conditions: Compound concentration 1.0 uM
[20] = molecular target: Serine/threonine-protein kinase MAK (Homo sapiens) (UniProt P20794); assay: activity of MAK(h) at 1.0 µM in the Eurofins Kinase panel; conditions: Compound concentration 1.0 uM
[21] = molecular target: Mitogen-activated protein kinase kinase kinase kinase 4 (Homo sapiens) (UniProt O95819); assay: activity of MAP4K4(h) at 1.0 µM in the Eurofins Kinase panel; conditions: Compound concentration 1.0 uM
[22] = molecular target: Mitogen-activated protein kinase kinase kinase 3 (Homo sapiens) (UniProt Q99759); assay: activity of MEKK3(h) at 1.0 µM in the Eurofins Kinase panel; conditions: Compound concentration 1.0 uM
[23] = molecular target: Maternal embryonic leucine zipper kinase (Homo sapiens) (UniProt Q14680); assay: activity of MELK(h) at 1.0 µM in the Eurofins Kinase panel; conditions: Compound concentration 1.0 uM
[24] = molecular target: Dual specificity mitogen-activated protein kinase kinase 6 (Homo sapiens) (UniProt P52564); assay: activity of MKK6(h) at 1.0 µM in the Eurofins Kinase panel; conditions: Compound concentration 1.0 uM
[25] = molecular target: Serine/threonine-protein kinase MRCK alpha (Homo sapiens) (UniProt Q5VT25); assay: activity of MRCKalpha(h) at 1.0 µM in the Eurofins Kinase panel; conditions: Compound concentration 1.0 uM
[26] = molecular target: Serine/threonine-protein kinase Nek11 (Homo sapiens) (UniProt Q8NG66); assay: activity of NEK11(h) at 1.0 µM in the Eurofins Kinase panel; conditions: Compound concentration 1.0 uM
[27] = molecular target: Serine/threonine-protein kinase NLK (Homo sapiens) (UniProt Q9UBE8); assay: activity of NLK(h) at 1.0 µM in the Eurofins Kinase panel; conditions: Compound concentration 1.0 uM
[28] = molecular target: NUAK family SNF1-like kinase 2 (Homo sapiens) (UniProt Q9H093); assay: activity of NUAK2(h) at 1.0 µM in the Eurofins Kinase panel; conditions: Compound concentration 1.0 uM
[29] = molecular target: Serine/threonine-protein kinase PAK 2 (Homo sapiens) (UniProt Q13177); assay: activity of PAK2(h) at 1.0 µM in the Eurofins Kinase panel; conditions: Compound concentration 1.0 uM
[30] = molecular target: Serine/threonine-protein kinase PAK 5 (Homo sapiens) (UniProt Q9P286); assay: activity of PAK5(h) at 1.0 µM in the Eurofins Kinase panel; conditions: Compound concentration 1.0 uM
[31] = molecular target: Serine/threonine-protein kinase PAK 6 (Homo sapiens) (UniProt Q9NQU5); assay: activity of PAK6(h) at 1.0 µM in the Eurofins Kinase panel; conditions: Compound concentration 1.0 uM
[32] = molecular target: Platelet-derived growth factor receptor beta (Homo sapiens) (UniProt P09619); assay: activity of PDGFRbeta(h) at 1.0 µM in the Eurofins Kinase panel; conditions: Compound concentration 1.0 uM
[33] = molecular target: Protein kinase C alpha type (Homo sapiens) (UniProt P17252); assay: activity of PKCalpha(h) at 1.0 µM in the Eurofins Kinase panel; conditions: Compound concentration 1.0 uM
[34] = molecular target: Protein kinase C eta type (Homo sapiens) (UniProt P24723); assay: activity of PKCeta(h) at 1.0 µM in the Eurofins Kinase panel; conditions: Compound concentration 1.0 uM
[35] = molecular target: Serine/threonine-protein kinase D1 (Homo sapiens) (UniProt Q15139); assay: activity of PKCmu(h) at 1.0 µM in the Eurofins Kinase panel; conditions: Compound concentration 1.0 uM
[36] = molecular target: Receptor-interacting serine/threonine-protein kinase 1 (Homo sapiens) (UniProt Q13546); assay: activity of RIPK1(h) at 1.0 µM in the Eurofins Kinase panel; conditions: Compound concentration 1.0 uM
[37] = molecular target: Testis-specific serine/threonine-protein kinase 1 (Homo sapiens) (UniProt Q9BXA7); assay: activity of TSSK1(h) at 1.0 µM in the Eurofins Kinase panel; conditions: Compound concentration 1.0 uM
[38] = molecular target: Wee1-like protein kinase 2 (Homo sapiens) (UniProt P0C1S8); assay: activity of Wee1B(h) at 1.0 µM in the Eurofins Kinase panel; conditions: Compound concentration 1.0 uM

Chain of 5'-AMP-activated protein kinase catalytic subunit alpha-2 (Homo sapiens) (P54646 whole entry, looked up): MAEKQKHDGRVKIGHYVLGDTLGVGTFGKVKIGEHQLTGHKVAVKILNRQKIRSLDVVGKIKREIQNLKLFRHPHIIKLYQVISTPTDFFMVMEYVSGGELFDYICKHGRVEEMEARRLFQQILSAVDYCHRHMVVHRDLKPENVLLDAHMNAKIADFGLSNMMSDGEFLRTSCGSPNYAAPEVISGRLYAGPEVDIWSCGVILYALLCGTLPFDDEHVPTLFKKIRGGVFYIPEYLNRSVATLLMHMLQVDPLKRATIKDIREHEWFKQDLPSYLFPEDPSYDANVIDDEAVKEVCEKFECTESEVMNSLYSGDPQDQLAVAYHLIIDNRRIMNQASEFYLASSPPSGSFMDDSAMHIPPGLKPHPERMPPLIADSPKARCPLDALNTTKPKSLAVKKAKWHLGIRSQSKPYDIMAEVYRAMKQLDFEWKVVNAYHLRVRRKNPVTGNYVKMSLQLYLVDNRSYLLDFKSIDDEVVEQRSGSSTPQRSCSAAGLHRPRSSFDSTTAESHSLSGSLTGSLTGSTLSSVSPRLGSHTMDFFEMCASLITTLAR
Chain of Dual specificity tyrosine-phosphorylation-regulated kinase 1B (Homo sapiens) (Q9Y463 whole entry, looked up): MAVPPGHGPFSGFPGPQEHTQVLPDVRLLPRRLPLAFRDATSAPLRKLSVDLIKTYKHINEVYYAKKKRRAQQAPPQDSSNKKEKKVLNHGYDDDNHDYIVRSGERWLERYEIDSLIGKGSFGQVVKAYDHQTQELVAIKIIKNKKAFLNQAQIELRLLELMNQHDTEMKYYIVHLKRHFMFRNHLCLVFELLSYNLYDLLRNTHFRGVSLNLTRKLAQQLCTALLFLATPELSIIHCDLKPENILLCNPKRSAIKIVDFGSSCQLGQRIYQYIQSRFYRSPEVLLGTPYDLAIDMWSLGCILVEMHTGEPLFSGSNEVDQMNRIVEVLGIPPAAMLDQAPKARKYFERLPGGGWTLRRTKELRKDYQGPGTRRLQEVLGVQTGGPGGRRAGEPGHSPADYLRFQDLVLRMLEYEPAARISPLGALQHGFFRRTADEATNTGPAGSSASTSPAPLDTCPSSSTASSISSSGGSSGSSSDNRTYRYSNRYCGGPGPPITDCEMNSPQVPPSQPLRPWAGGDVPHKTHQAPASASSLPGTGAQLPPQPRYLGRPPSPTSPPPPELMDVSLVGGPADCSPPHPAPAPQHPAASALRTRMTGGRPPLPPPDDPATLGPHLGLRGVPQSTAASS
Chain of Mitogen-activated protein kinase 9 (Homo sapiens) (P45984 whole entry, looked up): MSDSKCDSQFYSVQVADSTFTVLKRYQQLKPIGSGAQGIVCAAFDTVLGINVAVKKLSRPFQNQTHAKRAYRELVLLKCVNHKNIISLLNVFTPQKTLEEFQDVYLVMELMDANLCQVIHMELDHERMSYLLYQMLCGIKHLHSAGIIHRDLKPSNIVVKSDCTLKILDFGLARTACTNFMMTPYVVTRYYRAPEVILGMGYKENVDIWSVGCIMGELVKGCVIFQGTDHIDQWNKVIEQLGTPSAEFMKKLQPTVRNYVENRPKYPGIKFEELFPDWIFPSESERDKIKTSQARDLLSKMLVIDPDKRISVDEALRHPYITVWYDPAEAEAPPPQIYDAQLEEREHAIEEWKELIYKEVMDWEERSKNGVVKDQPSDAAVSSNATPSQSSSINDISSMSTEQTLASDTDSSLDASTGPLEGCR
Chain of Serine/threonine-protein kinase PAK 6 (Homo sapiens) (Q9NQU5 whole entry, looked up): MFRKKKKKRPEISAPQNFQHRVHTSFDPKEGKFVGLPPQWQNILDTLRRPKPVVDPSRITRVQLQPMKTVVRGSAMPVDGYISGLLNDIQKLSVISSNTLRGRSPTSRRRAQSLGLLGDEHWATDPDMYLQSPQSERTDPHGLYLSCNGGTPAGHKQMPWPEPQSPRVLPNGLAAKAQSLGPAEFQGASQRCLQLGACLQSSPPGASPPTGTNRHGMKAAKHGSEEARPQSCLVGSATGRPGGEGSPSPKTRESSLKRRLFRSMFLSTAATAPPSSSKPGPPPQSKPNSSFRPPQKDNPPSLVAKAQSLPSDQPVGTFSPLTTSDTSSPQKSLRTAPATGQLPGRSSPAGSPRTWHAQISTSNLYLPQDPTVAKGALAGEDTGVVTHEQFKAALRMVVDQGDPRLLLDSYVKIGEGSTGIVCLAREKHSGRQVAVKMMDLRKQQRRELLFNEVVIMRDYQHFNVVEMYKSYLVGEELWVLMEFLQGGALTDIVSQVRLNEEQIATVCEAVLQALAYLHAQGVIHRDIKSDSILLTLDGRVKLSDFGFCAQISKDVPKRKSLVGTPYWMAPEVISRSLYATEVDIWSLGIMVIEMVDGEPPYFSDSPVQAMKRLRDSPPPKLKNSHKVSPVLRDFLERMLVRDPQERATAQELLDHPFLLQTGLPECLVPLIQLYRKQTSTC
Chain of RAF proto-oncogene serine/threonine-protein kinase (Homo sapiens) (P04049 whole entry): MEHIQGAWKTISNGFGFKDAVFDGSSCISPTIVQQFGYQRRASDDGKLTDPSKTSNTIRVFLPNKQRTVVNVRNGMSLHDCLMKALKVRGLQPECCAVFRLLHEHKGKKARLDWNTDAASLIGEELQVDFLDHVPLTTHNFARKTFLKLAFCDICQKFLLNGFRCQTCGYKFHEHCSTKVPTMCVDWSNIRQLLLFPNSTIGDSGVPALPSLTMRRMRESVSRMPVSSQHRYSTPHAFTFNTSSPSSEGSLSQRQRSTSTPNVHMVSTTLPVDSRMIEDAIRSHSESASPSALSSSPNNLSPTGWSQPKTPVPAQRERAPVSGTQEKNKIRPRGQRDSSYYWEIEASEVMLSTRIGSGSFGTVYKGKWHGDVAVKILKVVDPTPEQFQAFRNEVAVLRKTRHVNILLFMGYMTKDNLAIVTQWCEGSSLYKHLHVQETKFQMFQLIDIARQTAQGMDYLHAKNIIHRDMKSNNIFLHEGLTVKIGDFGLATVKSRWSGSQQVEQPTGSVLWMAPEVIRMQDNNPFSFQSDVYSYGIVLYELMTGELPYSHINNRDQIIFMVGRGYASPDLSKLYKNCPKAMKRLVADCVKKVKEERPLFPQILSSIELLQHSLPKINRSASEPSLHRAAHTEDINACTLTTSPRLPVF
Chain of Serine/threonine-protein kinase MAK (Homo sapiens) (P20794 whole entry): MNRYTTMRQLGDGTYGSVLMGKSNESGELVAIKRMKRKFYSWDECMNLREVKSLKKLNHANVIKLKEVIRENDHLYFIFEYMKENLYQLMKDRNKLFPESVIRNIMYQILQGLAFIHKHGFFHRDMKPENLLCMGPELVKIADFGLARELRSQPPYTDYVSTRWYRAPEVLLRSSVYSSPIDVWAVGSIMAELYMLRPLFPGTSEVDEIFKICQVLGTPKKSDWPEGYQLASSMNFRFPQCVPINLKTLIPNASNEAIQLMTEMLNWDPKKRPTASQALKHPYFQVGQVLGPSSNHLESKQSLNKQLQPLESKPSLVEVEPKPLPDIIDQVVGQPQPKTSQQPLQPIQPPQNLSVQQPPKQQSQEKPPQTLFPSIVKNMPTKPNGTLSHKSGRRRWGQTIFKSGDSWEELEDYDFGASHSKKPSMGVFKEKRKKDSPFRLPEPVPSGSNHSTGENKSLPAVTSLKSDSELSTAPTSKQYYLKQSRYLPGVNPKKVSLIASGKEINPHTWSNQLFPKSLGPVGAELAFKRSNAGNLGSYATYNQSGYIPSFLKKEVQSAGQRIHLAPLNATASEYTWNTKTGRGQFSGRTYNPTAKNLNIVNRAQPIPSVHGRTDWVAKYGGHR
Chain of Serine/threonine-protein kinase/endoribonuclease IRE1 (Homo sapiens) (O75460 19-977 limits assumed): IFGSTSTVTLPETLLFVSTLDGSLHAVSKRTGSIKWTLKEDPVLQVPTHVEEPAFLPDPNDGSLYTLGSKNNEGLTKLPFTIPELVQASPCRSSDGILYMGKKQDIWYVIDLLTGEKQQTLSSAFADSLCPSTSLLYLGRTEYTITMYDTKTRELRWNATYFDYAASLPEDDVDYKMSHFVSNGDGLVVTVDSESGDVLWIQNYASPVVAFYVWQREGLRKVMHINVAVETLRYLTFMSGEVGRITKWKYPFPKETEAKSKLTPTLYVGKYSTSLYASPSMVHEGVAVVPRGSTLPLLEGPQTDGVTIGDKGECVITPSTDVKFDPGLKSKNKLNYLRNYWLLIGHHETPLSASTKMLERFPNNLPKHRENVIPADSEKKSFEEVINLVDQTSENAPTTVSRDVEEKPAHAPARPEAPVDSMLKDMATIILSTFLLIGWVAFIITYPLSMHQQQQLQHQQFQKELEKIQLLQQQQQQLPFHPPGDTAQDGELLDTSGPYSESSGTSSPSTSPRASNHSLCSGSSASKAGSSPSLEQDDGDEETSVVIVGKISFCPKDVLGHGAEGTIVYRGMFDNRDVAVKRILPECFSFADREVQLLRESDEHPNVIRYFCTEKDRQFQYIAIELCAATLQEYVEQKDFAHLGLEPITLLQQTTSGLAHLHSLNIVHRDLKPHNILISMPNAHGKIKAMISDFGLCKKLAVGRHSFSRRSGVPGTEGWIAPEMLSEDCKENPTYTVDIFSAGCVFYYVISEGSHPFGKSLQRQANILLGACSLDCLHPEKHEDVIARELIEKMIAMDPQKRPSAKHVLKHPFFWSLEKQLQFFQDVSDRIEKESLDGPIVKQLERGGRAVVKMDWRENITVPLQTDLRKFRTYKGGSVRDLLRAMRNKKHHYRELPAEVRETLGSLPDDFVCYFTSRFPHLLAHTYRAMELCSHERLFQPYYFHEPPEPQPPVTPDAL
Chain of Serine/threonine-protein kinase PAK 2 (Homo sapiens) (Q13177 whole entry): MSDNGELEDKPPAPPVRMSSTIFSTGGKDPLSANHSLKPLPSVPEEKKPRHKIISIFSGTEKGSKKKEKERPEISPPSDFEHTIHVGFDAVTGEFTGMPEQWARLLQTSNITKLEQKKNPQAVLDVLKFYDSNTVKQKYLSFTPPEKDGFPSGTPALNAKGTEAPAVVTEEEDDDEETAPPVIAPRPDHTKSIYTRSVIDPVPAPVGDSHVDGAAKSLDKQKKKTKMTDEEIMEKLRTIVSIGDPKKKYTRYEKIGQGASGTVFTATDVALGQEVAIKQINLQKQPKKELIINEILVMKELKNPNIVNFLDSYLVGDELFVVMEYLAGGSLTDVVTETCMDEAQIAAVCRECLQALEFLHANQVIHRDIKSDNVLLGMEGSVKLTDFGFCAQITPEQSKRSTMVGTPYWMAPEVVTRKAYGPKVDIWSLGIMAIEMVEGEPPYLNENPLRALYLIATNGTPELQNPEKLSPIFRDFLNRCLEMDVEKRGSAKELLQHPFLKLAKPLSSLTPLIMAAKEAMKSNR

- IC50 (Aurora kinase A): > 10 µM (not active)
- IC50 [1]: > 10 µM (not active)
- activity [2]: 117%
- activity [3]: 96%
- activity [4]: 75%
- activity [5]: 104%
- activity [6]: 106%
- activity [7]: 95%
- activity [8]: 106%
- activity [9]: 104%
- activity [10]: 108%
- activity [11]: 79%
- activity [12]: 83%
- activity [13]: 100%
- activity [14]: 99%
- activity [15]: 94%
- activity [16]: 99%
- activity [17]: 104%
- activity [18]: 99%
- activity [19]: 90%
- activity [20]: 120%
- activity [21]: 101%
- activity [22]: 107%
- activity [23]: 82%
- activity [24]: 101%
- activity [25]: 94%
- activity [26]: 97%
- activity [27]: 98%
- activity [28]: 72%
- activity [29]: 95%
- activity [30]: 87%
- activity [31]: 101%
- activity [32]: 105%
- activity [33]: 92%
- activity [34]: 118%
- activity [35]: 109%
- activity [36]: 84%
- activity [37]: 116%
- activity [38]: 88%
SMILES: Cc1cc2c(-c3ccc(NC(=O)[C@H](N)CC(C)(C)C)cc3C)ccnc2[nH]1
